# In PubChem BioAssay (NCI):
#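 96-well plates; 48 h exposure; 5 concentrations. Endpoints by linear interpolation between flanking doses. Not reached: highest tested concentration assigned. GI50: concentration for 50% inhibition of growth. The concentration for full growth arrest is given as TGI.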
# How the values were obtained:
# Assay in all cases: NCI tumour cell line growth inhibition, 48 h
# [1] = system: SK-MEL-2 melanoma
# [2] = system: SK-OV-3 ovarian
# [3] = system: HOP-92 NSCLC
# [4] = system: SW-620 colon
# [5] = system: NCI-H23 lung
# [6] = system: RXF 393 renal
# [7] = system: NCI-H522 lung
# [8] = system: HCT-15 colon
# [9] = system: MALME-3M melanoma
# [10] = system: SK-MEL-28 melanoma
# [11] = system: MDA-MB-231 breast
# [12] = system: SNB-19 CNS
# [13] = system: PC-3 prostate
# [14] = system: OVCAR-4 ovarian
# [15] = system: EKVX NSCLC
# [16] = system: ACHN renal
# [17] = system: MCF7 breast
# [18] = system: SN12C renal
# [19] = system: HT29 colon
# [20] = system: NCI-H460 lung
# [21] = system: MOLT-4 leukemia
# [22] = system: CCRF-CEM leukemia
# [23] = system: A549 NSCLC
# [24] = system: BT-549 breast
# [25] = system: HCC-2998 colon
# [26] = system: COLO 205 colon
# [27] = system: SR leukemia
# [28] = system: SNB-75 CNS
# [29] = system: KM12 colon
# [30] = system: UACC-62 melanoma
# [31] = system: HL-60(TB) leukemia
# [32] = system: UACC-257 melanoma
# [33] = system: IGROV1 ovarian
# [34] = system: UO-31 renal
# [35] = system: NCI-H226 lung
# [36] = system: SF-268 CNS
# [37] = system: CAKI-1 renal
# [38] = system: SF-295 CNS
# [39] = system: A498 renal
# [40] = system: LOX IMVI melanoma
# [41] = system: SK-MEL-5 melanoma
# [42] = system: OVCAR-5 ovarian
# [43] = system: DU-145 prostate
# [44] = system: T-47D breast
# [45] = system: M14 melanoma
# [46] = system: SF-539 CNS
# [47] = system: MDA-MB-435
# [48] = system: OVCAR-3 ovarian
# [49] = system: TK-10 renal
smiles,measurement,setting,value
COc1cc(C2CC(c3cccc(Nc4ccncc4)c3)=NN2c2ccccc2)cc(OC)c1OC (stereo not drawn),GI50,[1],1960 nM
same,TGI,[1],3800 nM
same,GI50,[2],1780 nM
same,TGI,[2],3500 nM
same,GI50,[3],1410 nM
same,TGI,[3],2940 nM
same,GI50,[4],1660 nM
same,TGI,[4],3160 nM
same,GI50,[5],1940 nM
same,TGI,[5],3870 nM
same,GI50,[6],1560 nM
same,TGI,[6],2950 nM
same,GI50,[7],1750 nM
same,TGI,[7],3620 nM
same,GI50,[8],1910 nM
same,TGI,[8],3750 nM
same,GI50,[9],1610 nM
same,TGI,[9],3030 nM
same,GI50,[10],1770 nM
same,TGI,[10],3300 nM
same,GI50,[11],1520 nM
same,TGI,[11],2890 nM
same,GI50,[12],1640 nM
same,TGI,[12],3290 nM
same,GI50,[13],1790 nM
same,TGI,[13],4230 nM
same,GI50,[14],1710 nM
same,TGI,[14],3730 nM
same,GI50,[15],1800 nM
same,TGI,[15],4160 nM
same,GI50,[16],1700 nM
same,TGI,[16],3110 nM
same,GI50,[17],1840 nM
same,TGI,[17],4040 nM
same,GI50,[18],1600 nM
same,TGI,[18],3050 nM
same,GI50,[19],1930 nM
same,TGI,[19],4530 nM
same,GI50,[20],1770 nM
same,TGI,[20],3270 nM
same,GI50,[21],1860 nM
same,TGI,[21],4700 nM
same,GI50,[22],2930 nM
same,TGI,[22],8530 nM
same,GI50,[23],1730 nM
same,TGI,[23],3530 nM
same,GI50,[24],1800 nM
same,TGI,[24],3560 nM
same,GI50,[25],1800 nM
same,TGI,[25],3300 nM
same,GI50,[26],1800 nM
same,TGI,[26],4250 nM
same,GI50,[27],1560 nM
same,TGI,[27],3580 nM
same,GI50,[28],1420 nM
same,TGI,[28],3740 nM
same,GI50,[29],1720 nM
same,TGI,[29],3460 nM
same,GI50,[30],1730 nM
same,TGI,[30],3180 nM
same,GI50,[31],1720 nM
same,TGI,[31],3650 nM
same,GI50,[32],1950 nM
same,TGI,[32],3820 nM
same,GI50,[33],1770 nM
same,TGI,[33],3610 nM
same,GI50,[34],1420 nM
same,TGI,[34],2810 nM
same,GI50,[35],2110 nM
same,TGI,[35],5270 nM
same,GI50,[36],1700 nM
same,TGI,[36],3450 nM
same,GI50,[37],1550 nM
same,TGI,[37],3010 nM
same,GI50,[38],1810 nM
same,TGI,[38],3280 nM
same,GI50,[39],1630 nM
same,TGI,[39],7140 nM
same,GI50,[40],1760 nM
same,TGI,[40],3150 nM
same,GI50,[41],1780 nM
same,TGI,[41],3170 nM
same,GI50,[42],2170 nM
same,TGI,[42],5230 nM
same,GI50,[43],1790 nM
same,TGI,[43],3400 nM
same,GI50,[44],2120 nM
same,TGI,[44],6610 nM
same,GI50,[45],1910 nM
same,TGI,[45],4120 nM
same,GI50,[46],1710 nM
same,TGI,[46],3110 nM
same,GI50,[47],1610 nM
same,TGI,[47],3120 nM
same,GI50,[48],1660 nM
same,TGI,[48],3140 nM
same,GI50,[49],1790 nM
same,TGI,[49],3420 nM
